“Also recorded” adds a separate entry of the source.
What was measured:
[1] = tested on: Nalm-6; experiment: huCART19 proliferation in co-culture with RAD001; format: cell-based, human; conditions: 4 day co-culture with Nalm-6; 0.0032 and 0.016 nM RAD001
Description: A humanized, anti-human CD19 CAR (huCART19) lentiviral transfer vector was used to produce the genomic material packaged into VSVg pseudotyped lentiviral particles. The amino acid and nucleotide sequence of the humanized anti-human CD19 CAR (huCART19) is CAR 1, ID 104875 described in PCT publication, WO2014/153270, filed Mar. 15, 2014, and is designated SEQ ID NOs. 85 and 31 therein.
Lentiviral transfer vector DNA is mixed with the three packaging components VSVg env, gag/pol and rev in combination with lipofectamine reagent to transfect Lenti-X 293T cells. Medium is changed after 24 h and 30 h thereafter, the virus-containing media is collected, filtered and stored at −80° C. CARTs are generated by transduction of fresh or frozen naïve T cells obtained by negative magnetic selection of healthy donor blood or leukopak. […] The percentage of cells transduced (expressing the CARs on the cell surface) and the level of CAR expression (relative fluorescence intensity, Geo Mean) are determined by flow cytometric analysis between days 7 and 9. […]
To evaluate the functionality of CARTs, the T cells are thawed and counted, and viability is assessed by Cellometer. […]
For measuring the proliferation of CARTs, T cells are cultured with target cells at a ratio of 1:1. […] The number of T cells is assessed by flow cytometry using counting beads as reference.

[2] = tested on: NALM6-luc tumors; experiment: NALM6-luc tumor growth with daily RAD001 dosing; format: in vivo, NSG mice; conditions: daily oral RAD001 alone, 0.3, 1, 3, 10 mg/kg
Procedure: The NALM6 human acute lymphoblastic leukemia (ALL) cell line was developed from the peripheral blood of a patient with relapsed ALL. The cells were then tagged with firefly luciferase. These suspension cells grow in RPMI supplemented with 10% heat inactivated fetal bovine serum.
6 week old NSG (NOD.Cg-Prkdc^scidIl2rg^tm1Wjl/SzJ) mice were received from the Jackson Laboratory (stock number 005557).
(§1) NALM6-luc cells were grown and expanded in vitro in RPMI supplemented with 10% heat inactivated fetal bovine serum. The cells were then transferred to a 15 ml conical tube and washed twice with cold sterile PBS. NALM6-luc cells were then counted and resuspended at a concentration of 10×10^6 cells per milliliter of PBS. The cells were placed on ice and immediately (within one hour) implanted in the mice. NALM6-luc cells were injected intravenously via the tail vein in a 100 μl volume, for a total of 1×10^6 cells per mouse.
(§2) A concentrated micro-emulsion of 50 mg equal to 1 mg RAD001 was formulated and then resuspended in D5W (dextrose 5% in water) at the time of dosing. Mice were orally dosed daily (via oral gavage) with 200 μl of the desired doses of RAD001.

[3] = RAD001 pharmacokinetics in blood of tumor bearing mice; format: in vivo, NSG mice
Procedure: as §2
Mice were dosed daily with RAD001 starting 7 days post tumor implantation. Dosing groups were as follows: 0.3 mg/kg, 1 mg/kg, 3 mg/kg, and 10 mg/kg. Mice were bled on days 0 and 14 following the first and last dose of RAD001, at the following time points for PK analysis: 15 minutes, 30 minutes, 1 hour, 2 hours, 4 hours, 8 hours, 12 hours, and 24 hours.

[4] = in vivo proliferation of huCAR19 CAR T cells with RAD001; conditions: NALM6-luc NSG mice, daily oral RAD001, lowest doses (0.003 mg/kg)
Procedure: as §1
Mice were administered 5×10^6 CAR T cells 7 days after tumor implantation. Cells were partially thawed in a 37 degree Celsius water bath and then completely thawed by the addition of 1 ml of cold sterile PBS to the tube containing the cells. The thawed cells were transferred to a 15 ml falcon tube and adjusted to a final volume of 10 mls with PBS. The cells were washed twice at 1000 rpm for 10 minutes each time and then counted on a hemocytometer. T cells were then resuspended at a concentration of 50×10^6 CAR T cells per ml of cold PBS and kept on ice until the mice were dosed. […]
Based on these doses, huCAR19 CAR T cells were dosed with and without RAD001 to determine the proliferative ability of these cells. […] Mice were monitored via FACS for T cell expansion.

[5] = tested on: primary AML blasts; experiment: chemotherapy followed by CLL1-CART cells in primary AML xenografts; format: in vivo, NSG-S mice; conditions: two weeks after cytarabine 60 mg/kg i.p. daily days 35-39
Procedure: NSG mice that are additionally transgenic for stem cell factor, GM-CSF and IL-3 (NSG-S) were injected with primary AML blasts (3×10^6 via tail vain injection, day 0). After 4-6 weeks, peripheral blood (PB) was collected to confirm engraftment, which was defined as the presence of >1% circulating leukemic cells (live human CD45dim cells). AML xenografts were then treated with cytarabine (Ara-C, 60 mg/kg by intra-peritoneal injection, daily between days 35-39). Peripheral blood counts were monitored and then these xenografts were randomized to receive CLL1 directed CART cells or control untransduced T cells (1×10^5 I.V.) on day 55. Following that, serial retro-orbital bleedings were performed and absolute leukemic blast count was calculated as a measure of disease burden and the xenografts were followed up for survival.

| concentration of RAD001 (blood) ([3]; 24 hours after the final dose) | concentration at 24 h ([3]; NSG, mouse, blood, oral, 24 hours after dosing, lowest dose 0.3 mg/kg, day 0 and day 14, read-out: RAD001 concentrations in the blood) [nM] | stability in the blood of tumor bearing mice ([3]; daily oral dosing, day 0 and day 14 PK) | Structure (SMILES) | proliferation of huCART19 with RAD001 versus without [1] | growth of NALM6-luc tumors [2] | proliferation of huCAR19 CAR T cells in vivo [4] | mean fluorescence intensity (MFI) of CLL1 in leukemic cells (live huCD45dim) [5] |
| --- | --- | --- | --- | --- | --- | --- | --- |
| above 10 nM | > 10 | fairly stable | CO[C@H]1C[C@@H]2CC[C@@H](C)[C@@](O)(O2)C(=O)C(=O)N2CCCC[C@H]2C(=O)O[C@H]([C@H](C)C[C@@H]2CC[C@@H](OCCO)[C@H](OC)C2)CC(=O)[C@H](C)/C=C(\C)[C@@H](O)[C@@H](OC)C(=O)[C@H](C)C[C@H](C)/C=C/C=C/C=C/1C [RAD001, (1R,9S,12S,15R,16E,18R,19R,21R,23S,24E,26E,28E,30S,32S,35R)-1,18-dihydroxy-12-{(1R)-2-[(1S,3R,4R)-4-(2-hydroxyethoxy)-3-methoxycyclohexyl]-1-methylethyl}-19,30-dimethoxy-15,17,21,23,29,35-hexamethyl-11,36-dioxa-4-aza-tricyclo[30.3.1.04,9]hexatriaconta-16,24,26,28-tetraene-2,3,10,14,20-pentaone] | proliferation was higher than observed without the addition of RAD001 | did not have an impact | enhanced proliferation; also recorded: enhancement in CAR T cell proliferation |  |
|  |  |  | Nc1ccn([C@@H]2O[C@H](CO)[C@@H](O)[C@@H]2O)c(=O)n1 [cytarabine] |  |  |  | significant increase |
